# Measurements: patent publication US20230348454A1, “COMPOUNDS AS MODULATORS OF BIS-PHOSPHOGLYCERATE MUTASE FOR THE TREATMENT OF SICKLE CELL DISEASE” (Genzyme Corporation, priority 2020, published 2023)
# Target: T1, human Bisphosphoglycerate mutase (hBPGM) (Homo sapiens, UniProt P07738)
# T1 sequence (P07738 1-259): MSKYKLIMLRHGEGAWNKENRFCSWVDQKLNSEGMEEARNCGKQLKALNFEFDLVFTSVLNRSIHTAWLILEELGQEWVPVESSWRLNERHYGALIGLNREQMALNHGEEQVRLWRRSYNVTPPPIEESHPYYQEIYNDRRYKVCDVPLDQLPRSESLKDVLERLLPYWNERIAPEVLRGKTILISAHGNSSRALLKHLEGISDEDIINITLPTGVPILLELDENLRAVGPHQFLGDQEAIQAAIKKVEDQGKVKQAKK
# Test: BPGM phosphatase assay
# Assay type: biochemical
# Conditions: Table 4; read-out: hBPGM Phosphatase EC50
# Experimental: The following materials were used in this assay: Tris buffer (50 mM Tris, 0.01% Tween 20, pH 7.4); cyclohexylammonium salt of 2,3-BPG (stock solution of 500 mM in ultapure distilled water; human Bisphosphoglycerate mutase (hBPGM; stock solution of 110 μM in Standard Buffer); 3-Phosphoglyceric acid (3-PG; stock solution of 100 mM in ultrapure distilled water); 384-Well Polystyrene Plates (Fisherbrand™, Catalog No.: 12-566-625); BIOMOL GREEN REAGENT (Enzo life sciences, BML-AK111-0250); and 1 mM DMSO stock of exemplary compounds.
# A 3-PG enzyme mix solution (final enzyme concentration 62.5 nM, 3-PG concentration at 50 µM, 14.5 uL) was added to onto a 384-well clear plate. Solutions of the test compounds were then added to the plate and the DMSO content was normalized across the plate. The plate was incubated at RT for 15 min. Next, the substrate 2,3-BPG (5 μL) was added to all the wells, and the plate was sealed and incubated for 24 hr at RT. After incubation, BIOMOL green dye (40 μL) was added to all the wells, the plate was shaken to mix, and the plate was incubated at RT for 20-30 min. Absorbance measurements were recorded at 620 nm.
row,Compound,EC50 [µM]
1,Cc1cnc(OCc2nc(C)c(-c3cccc(-c4cc(F)c5nn[nH]c5c4F)n3)s2)nc1 [compound 8],0.04
2,Cc1nc(COc2ncccn2)sc1-c1cccc(-c2ccc(-c3noc(=O)[nH]3)cc2)n1 [compound 15],0.17
3,COC(=O)NCc1nc(C)c(-c2csc(-c3ccc(C(=O)NS(=O)(=O)c4ccccc4)cc3)n2)s1 [compound 13],0.055
4,Cc1nc(COc2ncccn2)sc1-c1cccc(-c2ccc3nn[nH]c3c2)n1 [compound 14],0.57

# Same assay, conditions: Table 6; read-out: huBPGM: phosphatase Enzyme EC50
row,Compound,EC50 [µM]
1,COC(=O)NCc1nc(C)c(-c2csc(-c3cc(F)c(O)cc3F)n2)s1 [Example 178],1.7
2,Cc1nc(COc2ncccn2)sc1-c1cccc(-c2cc(F)c(O)c(F)c2F)c1 [Example 148],0.25
3,Cc1nc(COc2ncccn2)sc1-c1cccc(-c2cc(F)c3[nH]nnc3c2)c1 [Example 177],0.25
4,Cc1nc(COC(=O)N(C)C)sc1-c1csc(-c2cc(F)c(O)c(F)c2F)n1 [Example 137],0.2
5,COC(=O)NCc1nc(C)c(-c2csc(-c3ccc4[nH]nnc4c3F)n2)s1 [Example 166],0.17
6,Cc1nc(CNc2cccnn2)sc1-c1cccc(-c2cc(F)c3nn[nH]c3c2F)n1 [Example 95],0.025
7,Cc1nc(CNC(=O)C(C)(C)C)sc1-c1csc(-c2cc(F)c(O)c(F)c2)n1 [Example 196],4.9
8,Cc1cnc(OCc2nc(C)c(-c3cccc(-c4cc(F)c5nn[nH]c5c4)n3)s2)nc1 [Example 152],0.03
9,CC(=O)NCc1nc(C)c(-c2csc(-c3cc(F)c4[nH]nnc4c3)n2)s1 [Example 103],> 25
10,Cc1nc(COCC(=O)N2CCN(CCO)CC2)sc1-c1csc(-c2cc(F)c(O)c(F)c2F)n1 [Example 104],> 25
11,COc1cnc(OCc2nc(C)c(-c3cccc(-c4cc(F)c5nn[nH]c5c4)n3)s2)nc1 [Example 142],0.04
12,Cc1cnc(OCc2nc(C)c(-c3cccc(-c4cc(F)c5nn[nH]c5c4F)n3)s2)nc1 [compound 8],0.04
13,Cc1nc(COc2ncccn2)sc1-c1cccc(-c2ccc(-c3noc(=O)[nH]3)cc2)n1 [compound 15],0.17
14,Cc1nc(COCC(=O)N2CCCC2)sc1-c1csc(-c2cc(F)c(O)c(F)c2F)n1 [Example 127],0.38
15,COC(=O)NCc1nc(C)c(-c2csc(-c3ccc(O)c(C#N)c3F)n2)s1 [Example 173],> 25
16,Cc1nc(CNC(=O)c2cccnn2)sc1-c1csc(-c2cc(F)c(O)c(F)c2F)n1 [Example 186],0.35
17,Cc1nc(COc2ncccn2)sc1-c1cccc(-c2ccc(O)c(C#N)c2)n1 [Example 159],1.8
18,COC(=O)NCc1nc(C)c(-c2csc(-c3cc(F)c(O)c(F)c3)n2)s1 [Example 191],1.6

row,Compound,EC50 [µM]
1,Cc1cnc(OCc2nc(C)c(-c3cccc(-c4cc(F)c5nn[nH]c5c4)n3)s2)nc1C [Example 136],0.07
2,Cc1nc(CNc2ncccn2)sc1-c1cccc(-c2cc(F)c3nn[nH]c3c2F)n1 [Example 126],> 25
3,Cc1nc(COC(=O)N(C)C)sc1-c1cccc(-c2cc(F)c3nn[nH]c3c2F)n1 [Example 125],2.7
4,Cc1nc(COc2ncccn2)sc1-c1cccc(-c2ccc3nn[nH]c3c2)n1 [Example 131],0.57
5,COC(=O)NCc1nc(C)c(-c2csc(-c3ccc(C(=O)NS(=O)(=O)c4ccccc4)cc3)n2)s1 [compound 13],0.032
6,Cc1nc(COCC(=O)O)sc1-c1csc(-c2cc(F)c(O)c(F)c2F)n1 [Example 99],7.8
7,Cc1nc(CNc2ncccn2)sc1-c1cccc(-c2cc(F)c(O)c(F)c2F)n1 [Example 168],0.13
8,Cc1nc(CNC(=O)N2CC(O)C2)sc1-c1csc(-c2cc(F)c(O)c(F)c2F)n1 [Example 97],6.9
9,Cc1nc(COC(=O)N(C)C)sc1-c1cccc(-c2cc(F)c(O)c(F)c2F)n1 [Example 169],0.33
10,Cc1nc(COc2ncccn2)sc1-c1csc(-c2cc(F)c(O)c(F)c2F)c1 [Example 154],0.049
11,COC(=O)NCc1nc(C)c(-c2csc(-c3ccc(O)c(F)c3)n2)s1 [Example 203],3.6
12,Cc1ccnc(OCc2nc(C)c(-c3cccc(-c4cc(F)c5nn[nH]c5c4F)n3)s2)n1 [Example 130],10
13,COC(=O)NCc1nc(C)c(-c2csc(-c3ccc4[nH]nnc4c3F)n2)s1 [Example 156],0.15
14,Cc1nc(CNc2ncccn2)sc1-c1cccc(-c2cc(F)c3nn[nH]c3c2)n1 [Example 155],0.04
15,Cc1nc(COc2ncccn2)sc1-c1cccc(-c2ccc(C#N)c(O)c2)n1 [Example 158],0.53
16,CC(=O)NCc1nc(C)c(-c2csc(-c3cc(F)c(O)c(F)c3F)n2)s1 [Example 96],1
17,Cc1nc(CNC(=O)C(C)(C)C)sc1-c1csc(-c2cc3nn[nH]c3cc2F)n1 [Example 181],0.79

# Target: T2, hBPGM (Homo sapiens, UniProt P07738)
# T2 sequence (P07738 1-259): T1 sequence (P07738 1-259)
# Test: BPGM synthase assay
# Assay type: biochemical
# Conditions: Table 3; read-out: hBPGM Synthase IC50
# Outline: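 The enzyme solution held 5 nM BPGM with 0.4 U/mL coupling GAPDH in Tris pH 7.4, 3.23 mM KH2PO4, 1 mM DTT, and compounds were pre-incubated 30 min at RT. Substrate solution (2 mM NAD, 20 μM 3PG, 800 μM GAP) reacted 60 min before a koningic acid quench. NADH fluorescence (360/460) and diaphorase/resazurin-derived resorufin (544/590) were read.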
row,Compound,IC50 [µM]
1,COC(=O)NCc1nc(C)c(-c2csc(-c3ccc(C(=O)NS(=O)(=O)c4ccccc4)cc3)n2)s1 [compound 13],0.169
2,Cc1nc(COc2ncccn2)sc1-c1cccc(-c2ccc3nn[nH]c3c2)n1 [compound 14],1.01

# Same assay, conditions: Table 6; read-out: huBPGM: synthase Enzyme IC50
row,Compound,IC50 [µM]
1,COC(=O)NCc1nc(C)c(-c2csc(-c3cc(F)c(O)cc3F)n2)s1 [Example 178],1.7
2,Cc1nc(COc2ncccn2)sc1-c1cccc(-c2cc(F)c(O)c(F)c2F)c1 [Example 148],1.2
3,Cc1nc(COc2ncccn2)sc1-c1cccc(-c2cc(F)c3[nH]nnc3c2)c1 [Example 177],0.44
4,Cc1nc(COC(=O)N(C)C)sc1-c1csc(-c2cc(F)c(O)c(F)c2F)n1 [Example 137],0.23
5,COC(=O)NCc1nc(C)c(-c2csc(-c3ccc4[nH]nnc4c3F)n2)s1 [Example 166],0.11
6,Cc1nc(CNc2cccnn2)sc1-c1cccc(-c2cc(F)c3nn[nH]c3c2F)n1 [Example 95],0.025
7,Cc1nc(CNC(=O)C(C)(C)C)sc1-c1csc(-c2cc(F)c(O)c(F)c2)n1 [Example 196],1.6
8,Cc1cnc(OCc2nc(C)c(-c3cccc(-c4cc(F)c5nn[nH]c5c4)n3)s2)nc1 [Example 152],0.04
9,CC(=O)NCc1nc(C)c(-c2csc(-c3cc(F)c4[nH]nnc4c3)n2)s1 [Example 103],0.93
10,Cc1nc(COCC(=O)N2CCN(CCO)CC2)sc1-c1csc(-c2cc(F)c(O)c(F)c2F)n1 [Example 104],2.3
11,COc1cnc(OCc2nc(C)c(-c3cccc(-c4cc(F)c5nn[nH]c5c4)n3)s2)nc1 [Example 142],0.26
12,Cc1cnc(OCc2nc(C)c(-c3cccc(-c4cc(F)c5nn[nH]c5c4F)n3)s2)nc1 [compound 8],0.017
13,Cc1nc(COc2ncccn2)sc1-c1cccc(-c2ccc(-c3noc(=O)[nH]3)cc2)n1 [compound 15],0.14
14,Cc1nc(COCC(=O)N2CCCC2)sc1-c1csc(-c2cc(F)c(O)c(F)c2F)n1 [Example 127],0.43
15,COC(=O)NCc1nc(C)c(-c2csc(-c3ccc(O)c(C#N)c3F)n2)s1 [Example 173],1.5
16,Cc1nc(CNC(=O)c2cccnn2)sc1-c1csc(-c2cc(F)c(O)c(F)c2F)n1 [Example 186],0.24
17,Cc1nc(COc2ncccn2)sc1-c1cccc(-c2ccc(O)c(C#N)c2)n1 [Example 159],0.29
18,COC(=O)NCc1nc(C)c(-c2csc(-c3cc(F)c(O)c(F)c3)n2)s1 [Example 191],1.1

row,Compound,IC50 [µM]
1,Cc1cnc(OCc2nc(C)c(-c3cccc(-c4cc(F)c5nn[nH]c5c4)n3)s2)nc1C [Example 136],0.2
2,Cc1nc(CNc2ncccn2)sc1-c1cccc(-c2cc(F)c3nn[nH]c3c2F)n1 [Example 126],0.021
3,Cc1nc(COC(=O)N(C)C)sc1-c1cccc(-c2cc(F)c3nn[nH]c3c2F)n1 [Example 125],0.023
4,Cc1nc(COc2ncccn2)sc1-c1cccc(-c2ccc3nn[nH]c3c2)n1 [Example 131],0.51
5,COC(=O)NCc1nc(C)c(-c2csc(-c3ccc(C(=O)NS(=O)(=O)c4ccccc4)cc3)n2)s1 [compound 13],0.17
6,Cc1nc(COCC(=O)O)sc1-c1csc(-c2cc(F)c(O)c(F)c2F)n1 [Example 99],4.7
7,Cc1nc(CNc2ncccn2)sc1-c1cccc(-c2cc(F)c(O)c(F)c2F)n1 [Example 168],0.22
8,Cc1nc(CNC(=O)N2CC(O)C2)sc1-c1csc(-c2cc(F)c(O)c(F)c2F)n1 [Example 97],1.8
9,Cc1nc(COC(=O)N(C)C)sc1-c1cccc(-c2cc(F)c(O)c(F)c2F)n1 [Example 169],0.56
10,Cc1nc(COc2ncccn2)sc1-c1csc(-c2cc(F)c(O)c(F)c2F)c1 [Example 154],0.11
11,COC(=O)NCc1nc(C)c(-c2csc(-c3ccc(O)c(F)c3)n2)s1 [Example 203],6.1
12,Cc1ccnc(OCc2nc(C)c(-c3cccc(-c4cc(F)c5nn[nH]c5c4F)n3)s2)n1 [Example 130],0.015
13,COC(=O)NCc1nc(C)c(-c2csc(-c3ccc4[nH]nnc4c3F)n2)s1 [Example 156],0.2
14,Cc1nc(CNc2ncccn2)sc1-c1cccc(-c2cc(F)c3nn[nH]c3c2)n1 [Example 155],0.044
15,Cc1nc(COc2ncccn2)sc1-c1cccc(-c2ccc(C#N)c(O)c2)n1 [Example 158],0.24
16,CC(=O)NCc1nc(C)c(-c2csc(-c3cc(F)c(O)c(F)c3F)n2)s1 [Example 96],1.6
17,Cc1nc(CNC(=O)C(C)(C)C)sc1-c1csc(-c2cc3nn[nH]c3cc2F)n1 [Example 181],0.3

# Tested on: human red blood cells
# Test: Human cell-based assay (2,3-BPG, ATP by LC/MS)
# Conditions: Erythrocyte, whole blood suspension, 37° C., 24 h, read-out: hRBC EC50
# Experimental: The following materials were used in this assay: DMSO; Hemox buffer (30 mM TES, 135 mM NaCl, 5 mM KCl, pH 7.4); Inosine (100 mM in hemox buffer); Glucose (1 M in water); human red blood cells; LC/MS Optima grade methanol; LC/MS Optima grade water; and Incubation buffer (30 mM TES, 135 mM NaCl, 5 mM KCl, 50 mM inosine, 20 mM glucose pH 7.4).
# Test compounds were loaded onto a 96-well plate (final concentration of DMSO was 1%). 10 mL whole blood was resuspended with an equivalent amount of 2× incubation buffer to make 25% het & 50% plasma solution. The final solution contains 10 mM glucose and 25 mM inosine. The blood suspension (100 uL) was added to the wells of the plate. The plate was covered with an adhesive foil cover and plastic lid, and incubated at 37° C. for 24 h. The samples were extracted through an SPE column and the metabolites (2,3-BPG, ATP) were analyzed by LC/MS.
row,Compound,EC50 [µM]
1,COC(=O)NCc1nc(C)c(-c2csc(-c3cc(F)c4[nH]nnc4c3F)n2)s1 [compound 16],22.5
